One may read the EC50 as the concentration needed to bring the measured effect to its halfway point. Low values mean an effect from little substance, high ones a need for much substance.

Structures are written as SMILES.

The source of these data is patent US8822503B2, “2-pyridone compounds” (Taisho Pharmaceutical Co., Ltd, priority 2009, dated 2014).

This assay concerns the target T1, human liver GK (Homo sapiens, UniProt P35557).
T1 construct: GST (glutathione S-transferase) (N); made in house; host or cells: E. coli
T1 sequence (P35557 1-466 isoform P35557-2): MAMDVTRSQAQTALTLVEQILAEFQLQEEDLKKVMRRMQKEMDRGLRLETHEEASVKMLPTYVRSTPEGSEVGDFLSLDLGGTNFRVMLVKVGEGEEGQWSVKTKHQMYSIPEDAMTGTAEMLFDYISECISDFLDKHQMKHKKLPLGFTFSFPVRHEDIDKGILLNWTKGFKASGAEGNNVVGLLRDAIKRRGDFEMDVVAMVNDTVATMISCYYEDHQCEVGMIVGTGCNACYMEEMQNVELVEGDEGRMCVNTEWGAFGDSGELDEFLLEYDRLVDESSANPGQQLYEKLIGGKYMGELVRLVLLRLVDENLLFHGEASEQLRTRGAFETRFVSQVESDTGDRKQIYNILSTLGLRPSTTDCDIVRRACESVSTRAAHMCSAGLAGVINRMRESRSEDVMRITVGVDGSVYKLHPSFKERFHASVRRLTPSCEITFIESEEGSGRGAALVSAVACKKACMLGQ
As to the kind of experiment: GK activation test. It is filed as biochemical. The note with it: test compound concentration needed to activate 50% of maximum activation ability; 4 mM 14C-labeled glucose, 2 mM ATP, room temperature, 20 minutes. The gist of the method:
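GST-tagged human liver GK from E. coli (0.24 μg/well) with 4 mM 14C-glucose, 2 mM ATP in Hepes-KOH pH 7.1, KCl, MgCl2, DTT, 1% DMSO, 20 min room temperature. Labeled glucose 6-phosphate captured on anion resin, eluted and counted. EC50 = concentration giving half of maximal activation.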
For `Cc1cc(/C(=C\[C@H]2CCC(=O)N2)c2ccc(C3CC3)c(=O)[nH]2)ccc1F` [Example 4-113, 3-Cyclopropyl-6-{(E)-1-(4-fluoro-3-methylphenyl)-2-[(2R)-5-oxopyrrolidin-2-yl]ethenyl}pyridin-2(1H)-one], the EC50 lay within 500 to 3000 nM.
Take `CSc1ccc([C@]2(c3ccc(C)c(=O)[nH]3)C[C@@H]2C2CCCC2)cc1` (relative stereo) [Example 3-3, trans-6-{2-Cyclopentyl-1-[4-(methylsulfanyl)phenyl]cyclopropyl}-3-methylpyridin-2(1H)-one]: the EC50 was in the range of 500 to 3000 nM.
To `COCCCc1ccc(C(C[C@H]2CCC(=O)N2)c2ccc(Cl)c(=O)[nH]2)cc1` (single isomer, unassigned) [Example 4-338] belongs 500 to 3000 nM; to `CCc1ccc(/C(=C\[C@H]2CCC(=O)C2)c2ccc(C3CC3)c(=O)[nH]2)cc1` [Example 1-58, 3-Cyclopropyl-6-{(E)-1-(4-ethylphenyl)-2-[(1S)-3-oxocyclopentyl]ethenyl}pyridin-2(1H)-one], 10 to 500 nM.
Turning to `O=C1CCC(CC(c2ccc(C(F)F)cc2)c2ccc(C3CC3)c(=O)[nH]2)N1` (single isomer, unassigned) [Example 4-340, 3-Cyclopropyl-6-[1-[4-(difluoromethyl)phenyl]-2-(5-oxopyrrolidin-2-yl)ethyl]pyridin-2(1H)-one], the EC50 lay within 500 to 3000 nM.
In turn, `O=C1CC[C@H](CC(c2ccc(Cl)c(C(F)(F)F)c2)c2ccc(C3CC3)c(=O)[nH]2)N1` (single isomer, unassigned) [Example 4-222] showed an EC50 of 3000 to 10000 nM.
On to `CC(C)(C)c1ccc(/C(=C\[C@H]2CCC(=O)N2)c2ccc(C3CC3)c(=O)[nH]2)cc1` [Example 4-83, 6-{(E)-1-(4-tert-Butylphenyl)-2-[(2R)-5-oxopyrrolidin-2-yl]ethenyl}-3-cyclopropylpyridin-2(1H)-one], for which the half-maximal effective concentration (EC50) was in the range of 10 to 500 nM.
`O=C1CCCN1C/C=C(\c1ccc(S(=O)(=O)C2CC2)cc1)c1ccc(Cl)c(=O)[nH]1` [Example 6-20, 3-Chloro-6-[(1E)-1-[4-(cyclopropylsulfonyl)phenyl]-3-(2-oxopyrrolidin-1-yl)prop-1-en-1-yl]pyridin-2(1H)-one] displayed a 50% effective concentration (EC50) of 500 to 3000 nM.
Compound `CCOc1ccc(C(C[C@H]2CCC(=O)N2)c2ccc(Cl)c(=O)[nH]2)cc1` (single isomer, unassigned) [Example 4-235] gave a concentration giving a half-maximal response (EC50) of 3000 to 10000 nM.
For `O=C1CC[C@H](/C=C(\c2ccc(OC3CCCC3)cc2)c2ccc(C3CC3)c(=O)[nH]2)N1` [Example 4-283, 6-{(E)-1-[4-(Cyclopentyloxy)phenyl]-2-[(2R)-5-oxopyrrolidin-2-yl]ethenyl}-3-cyclopropylpyridin-2(1H)-one], the EC50 was 10 to 500 nM.
As for `CSc1ccc([C@]2(c3ccc(C)c(=O)[nH]3)C[C@@H]2C2CCCC2)cc1Cl` (relative stereo) [Example 3-1, trans-6-{-1-[3-Chloro-4-(methylsulfanyl)phenyl]-2-cyclopentylcyclopropyl}-3-methylpyridin-2(1H)-one], the 50% effective concentration (EC50) fell in the range of 500 to 3000 nM.
Regarding `Cc1ccc(/C(=C\[C@H]2CCC(=O)N2)c2ccc(Cl)c(=O)[nH]2)cc1C(F)(F)F` [Example 4-25, 3-Chloro-6-{(E)-1-[4-methyl-3-(trifluoromethyl)phenyl]-2-[(2R)-5-oxopyrrolidin-2-yl]ethenyl}pyridin-2(1H)-one], the EC50 was in the range of 500 to 3000 nM.
Regarding `Cc1ccc(/C(=N/OC2CCCC2)c2ccc(S(C)(=O)=O)cc2)[nH]c1=O` [Example 5-3, (E)-6-{(Cyclopentyloxyimino)[4-(methylsulfonyl)phenyl]methyl}-3-methylpyridin-2(1H)-one], the EC50 lay within 3000 to 10000 nM.
In the case of `CC(C)Oc1ccc(/C(=C\[C@H]2CCC(=O)N2)c2ccc(C3CC3)c(=O)[nH]2)cc1` [Example 4-276, 3-Cyclopropyl-6-{(E)-2-[(2R)-5-oxopyrrolidin-2-yl]-1-[4-(propan-2-yloxy)phenyl]ethenyl}pyridin-2(1H)-one] it was 10 to 500 nM.
In the case of `CCOc1ccc(/C(=C\[C@H]2CCN(C(C)=O)C2)c2ccc(Cl)c(=O)[nH]2)cc1Cl` [Example 4-41, 6-[(E)-2-[(3R)-1-Acetylpyrrolidin-3-yl]-1-(3-chloro-4-ethoxyphenyl)ethenyl]-3-chloropyridin-2(1H)-one], the EC50 lay in the range of 500 to 3000 nM.
On to `COc1ccc(/C(=C\[C@H]2CC[C@H](O)CC2)c2ccc(C3CC3)c(=O)[nH]2)cc1Cl` [Example 1-89, 6-[(E)-1-(3-Chloro-4-methoxyphenyl)-2-(trans-4-hydroxycyclohexyl)ethenyl]-3-cyclopropylpyridin-2(1H)-one], for which the EC50 was in the range of 500 to 3000 nM.
Turning to `Cc1ccc(/C(=C\[C@H]2CCC(=O)N2)c2ccc(C3CC3)c(=O)[nH]2)c(F)c1` [Example 4-102, 3-Cyclopropyl-6-{(E)-1-(2-fluoro-4-methylphenyl)-2-[(2R)-5-oxopyrrolidin-2-yl]ethenyl}pyridin-2(1H)-one], the EC50 lay within 10 to 500 nM.
Compound `O=C1CC[C@H](CC(c2ccc(S(=O)(=O)C3CC3)c(Cl)c2)c2ccc(C3CC3)c(=O)[nH]2)N1` (single isomer, unassigned) [Example 4-343] registered an EC50 of 3000 to 10000 nM.
Regarding `CSc1ccc(/C(=C\[C@H]2CCC(=O)N2)c2ccc(Cl)c(=O)[nH]2)cc1C(F)(F)F` [Example 4-35, 3-Chloro-6-{(E)-1-[4-(methylsulfanyl)-3-(trifluoromethyl)phenyl]-2-[(2R)-5-oxopyrrolidin-2-yl]ethenyl}pyridin-2(1H)-one], the EC50 lay within 500 to 3000 nM.
`O=C1CC[C@H](CC(c2ccc(C3CC3)c(=O)[nH]2)c2ccc(Cl)cc2F)N1` (single isomer, unassigned) [Example 4-334] returned an EC50 of 500 to 3000 nM.
In turn, `O=C1CC[C@H](CC(c2ccc(C(F)(F)F)c(Cl)c2)c2ccc(C3CC3)c(=O)[nH]2)N1` (single isomer, unassigned) [Example 4-254] came in with a half-maximal effective concentration (EC50) of 10 to 500 nM.
In the case of `CC(C)c1ccc(/C(=C\[C@H]2CCC(=O)N2)c2ccc(C3CC3)c(=O)[nH]2)cc1Cl` [Example 4-81, 6-{(E)-1-[3-Chloro-4-(propan-2-yl)phenyl]-2-[(2R)-5-oxopyrrolidin-2-yl]ethenyl}-3-cyclopropylpyridin-2(1H)-one] it was 10 to 500 nM; in that of `COc1ccc(/C(=C\[C@H]2CCC(=O)N2)c2ccc(C3CC3)c(=O)[nH]2)cc1C(F)(F)F` [Example 4-134, 3-Cyclopropyl-6-{(E)-1-[4-methoxy-3-(trifluoromethyl)phenyl]-2-[(2R)-5-oxopyrrolidin-2-yl]ethenyl}pyridin-2(1H)-one], 10 to 500 nM; in that of `O=C1CC[C@H](/C=C(\c2ccc(Cl)cc2)c2ccc(OCCCO)c(=O)[nH]2)N1` [Example 4-169, 6-{(E)-1-(4-Chlorophenyl)-2-[(2R)-5-oxopyrrolidin-2-yl]ethenyl}-3-(3-hydroxypropoxy)pyridin-2(1H)-one], 3000 to 10000 nM.
In the case of `CC(C)Oc1ccc(/C(=C/[C@H]2CCC(=O)N2)c2ccc(C(C)(C)C)cc2)[nH]c1=O` [Example 4-166, 6-{(E)-1-(4-tert-Butylphenyl)-2-[(2R)-5-oxopyrrolidin-2-yl]ethenyl}-3-(propan-2-yloxy)pyridin-2(1H)-one] it was 500 to 3000 nM; in that of `O=C1CC[C@H](/C=C(\c2ccc(S(=O)(=O)C3CC3)cc2)c2ccc(C3CC3)c(=O)[nH]2)N1` [Example 4-290, 3-Cyclopropyl-6-{(E)-1-[4-(cyclopropylsulfonyl)phenyl]-2-[(2R)-5-oxopyrrolidin-2-yl]ethenyl}pyridin-2(1H)-one], 10 to 500 nM.
Compound `O=C1CC[C@H](/C=C(\c2ccc(F)cc2)c2ccc(C3CC3)c(=O)[nH]2)N1` [Example 4-100, 3-Cyclopropyl-6-{(E)-1-(4-fluorophenyl)-2-[(2R)-5-oxopyrrolidin-2-yl]ethenyl}pyridin-2(1H)-one] had an EC50 of 500 to 3000 nM.
Compound `CCc1ccc(C(CC2CCCC2)c2ccc(S(=O)(=O)CCCO)cc2)[nH]c1=O` (centres unmarked) [Example 2-11, 6-(2-Cyclopentyl-1-{4-[(3-hydroxypropyl)sulfonyl]phenyl}ethyl)-3-ethylpyridin-2(1H)-one] gave an EC50 of 500 to 3000 nM.
Regarding `O=C1CC[C@H](/C=C(\c2ccc(Cl)cc2)c2ccc(CCCCO)c(=O)[nH]2)N1` [Example 4-199, 6-{(E)-1-(4-Chlorophenyl)-2-[(2R)-5-oxopyrrolidin-2-yl]ethenyl}-3-(4-hydroxybutyl)pyridin-2(1H)-one], the EC50 was in the range of 500 to 3000 nM.
The compound `CC(C)COc1ccc(/C(=C\[C@H]2CCC(=O)N2)c2ccc(Cl)c(=O)[nH]2)cc1Cl` [Example 4-22, 3-Chloro-6-{(E)-1-[3-chloro-4-(2-methylpropoxy)phenyl]-2-[(2R)-5-oxopyrrolidin-2-yl]ethenyl}pyridin-2(1H)-one] came in with an EC50 of 10 to 500 nM.
The compound `C[S+]([O-])c1ccc(/C(=C\[C@H]2CCC(=O)N2)c2ccc(Cl)c(=O)[nH]2)cc1` (stereo partly drawn) [Example 4-158, 3-Chloro-6-{(E)-1-[4-(methylsulfinyl)phenyl]-2-[(2R)-5-oxopyrrolidin-2-yl]ethenyl}pyridin-2(1H)-one] displayed an EC50 of 3000 to 10000 nM.
In turn, `CSc1ccc(C(CC2CCC(=O)CC2)c2ccc(C)c(=O)[nH]2)cc1` (centres unmarked) [Example 2-20, 3-Methyl-6-{1-[4-(methylsulfanyl)phenyl]-2-(4-oxocyclohexyl)ethyl}pyridin-2(1H)-one] returned a half-maximal effective concentration (EC50) of 500 to 3000 nM.
